{
  "source": "patent US10709159B2",
  "about": "“Increasing the bioavailability of flavan-3-ols with carbohydrates with a low glycemic index” (NESTEC S.A., priority 2012, dated 2020)",
  "test_system": "Caco-2 human epithelial colorectal adenocarcinoma cells",
  "experiment": "In vitro Caco-2 cell model, transport of (−)-epicatechin",
  "type": "in vitro ADME",
  "conditions": "for concentration of (−)-epicatechin in the basal compartment in comparison to sucrose: 250 μM (−)-epicatechin plus carbohydrate 100 mg/ml on the apical side, 2 h incubation; for concentration of (−)-epicatechin in the basal compartment when in combination with carbohydrate: (−)-epicatechin in combination with selected low glycemic index carbohydrates",
  "experimental": "Caco-2 human epithelial colorectal adenocarcinoma cells were used to investigate the transport of (−)-epicatechin in vitro. Cells were grown in high glucose DMEM supplemented with 20% heat inactivated fetal bovine serum, non-essential amino acids and 2 mM L-glutamine, amphotericin B (1 μg/ml), penicillin (100 U/ml), and streptomycin (100 μg/ml) and maintained at 37° C. and 5% CO2. The medium was replaced every 2 days and the cells were reseeded every 7 days. Then, cells were seeded in 12-well transwell inserts at a density of 20,000 cells per cm^2 and the medium on both sides was replaced every 2 days. After 21 days, cells were already differentiated. On the experiment day, medium was removed and replaced by HBSS supplemented with 25 mM glucose, 10 mM HEPES and 1.8 mM CaCl2. […] Then, (−)-epicatechin (250 μM) alone or plus carbohydrates (5 to 100 mg/ml) were placed in the apical side of the cell monolayers and incubated for 2 h. All compounds were added to the exposure medium from stock solutions in DMSO. The concentration of DMSO at the apical side was kept at 0.05% in each experiment. (−)-Epicatechin was detected in the cell culture media using ultra-performance liquid chromatography using an Acquity UPLC HSS C18 2.1×100 mm, 1.8 μm column (Waters, Switzerland) equipped with HSS C18 VanGuard pre-column (Waters, Switzerland).",
  "data": [
    {"smiles": "O=C[C@H](O)[C@@H](O)[C@@H](O)[C@H](O)CO", "note": "[galactose]", "values": [
      {"measurement": "concentration of (−)-epicatechin in the basal compartment in comparison to sucrose", "result": "significant higher concentration of (−)-epicatechin in the basal compartment"},
      {"measurement": "concentration of (−)-epicatechin in the basal compartment when in combination with carbohydrate", "result": "significant increase in the concentration of (−)-epicatechin in the basal compartment"}
    ]},
    {"smiles": "OC[C@@H](O)[C@@H](O)[C@H](O)[C@@H](O)CO", "note": "[sorbitol, D-sorbitol]", "values": [
      {"measurement": "concentration of (−)-epicatechin in the basal compartment in comparison to sucrose", "result": "significant higher concentration of (−)-epicatechin in the basal compartment"},
      {"measurement": "concentration of (−)-epicatechin in the basal compartment when in combination with carbohydrate", "result": "significant increase in the concentration of (−)-epicatechin in the basal compartment"}
    ]},
    {"smiles": "OC[C@@H](O)[C@H](O)[C@@H](O)CO", "note": "[xylitol]", "values": [
      {"measurement": "concentration of (−)-epicatechin in the basal compartment in comparison to sucrose", "result": "significant higher concentration of (−)-epicatechin in the basal compartment"},
      {"measurement": "concentration of (−)-epicatechin in the basal compartment when in combination with carbohydrate", "result": "significant increase in the concentration of (−)-epicatechin in the basal compartment"}
    ]}
  ]
}
